Assay results from the supplement of paper PMC10331698.
± gives the standard deviation of the averaged measurements.

Assays:
Assay in all cases: level (log10 ratio to DMSO vehicle control); higher = higher biomarker level / cell amount than vehicle control
[1] = compound: C=CC(=O)OCC(F)(F)C(F)(F)C(F)(F)COC(=O)C=C [1H,1H,5H,5H-Perfluoro-1,5-pentanediol diacrylate]; conditions: 6700 nM; in DMSO
Method: (§1)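 BioMAP Diversity Plus panel of 12 human primary cell co-culture systems (3C, 4H, LPS, SAg, BT, BF4T, BE3C, CASM3C, HDF3CGF, KF3CT, MyoF, Mphg). Compounds were added 1 h before stimulation and left for 24 h (MyoF 48 h; BT 72 h for soluble read-outs or 6 d for IgG). Biomarkers were read by ELISA, cytotoxicity by SRB, PBMC viability and proliferation by Alamar Blue. Each well value was divided by the mean of 8 DMSO control wells on the same plate and log10 transformed; duplicate blinded samples were tested at 4 concentrations.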

[2] = compound: O=C(O)C=CC(F)(C(F)(F)F)C(F)(F)F [3-(Perfluoroisopropyl)-2-propenoic acid]; conditions: in DMSO
Method: as §1

[3] = compound: O=C(O)C(F)(F)C(F)(F)C(F)(F)C(F)(F)C(F)(F)C(F)(F)C(F)(F)C(F)(F)C(F)(F)C(F)F [11-H-Perfluoroundecanoic acid]; conditions: in DMSO
Method: as §1

[4] = compound: O=S(=O)(Cl)C(F)(F)C(F)(F)C(F)(F)C(F)(F)C(F)(F)C(F)(F)C(F)(F)C(F)(F)F [Perfluoro-1-octanesulfonyl chloride]; conditions: in DMSO
Method: as §1

[5] = compound: FC(F)(F)C(F)(F)C(F)(F)CI [Heptafluorobutyl iodide]; conditions: in DMSO
Method: as §1

[6] = compound: NC(=O)C(F)(F)C(F)(F)C(F)(F)C(F)F; conditions: in DMSO
Method: as §1

[7] = compound: COC(=O)C(F)(F)C(F)(F)OC(F)(C(F)(F)F)C(F)(F)OC(F)=C(F)F [Methyl perfluoro(3-(1-ethenyloxypropan-2-yloxy)propanoate)]; conditions: in DMSO
Method: as §1

[8] = compound: O=S(=O)(O)C(F)(F)C(F)(F)C(F)(F)C(F)(F)C(F)(F)C(F)(F)C(F)(F)C(F)(F)C(F)(F)C(F)(F)F [Sodium perfluorodecanesulfonate]; conditions: in DMSO
Method: as §1

[9] = compound: FC(F)(F)C(F)(F)C(F)(F)C(F)(F)C(F)(F)C(F)(F)C(F)(F)I [1-Iodopentadecafluoroheptane]; conditions: in DMSO
Method: as §1

[10] = compound: C=C(C)C(=O)OCCC(F)(F)C(F)(F)C(F)(F)C(F)(F)C(F)(F)C(F)(F)F [6:2 Fluorotelomer methacrylate]; conditions: in DMSO
Method: as §1

[11] = compound: NS(=O)(=O)C(F)(F)C(F)(F)C(F)(F)C(F)(F)C(F)(F)C(F)(F)F [Perfluorohexanesulfonamide]; conditions: in DMSO
Method: as §1

[12] = compound: O=S(=O)(O)CCC(F)(F)C(F)(F)C(F)(F)C(F)(F)C(F)(F)C(F)(F)F [6:2 Fluorotelomer sulfonic acid]; conditions: in DMSO
Method: as §1

[13] = compound: FC(F)(F)C(F)(F)CNCC(F)(F)C(F)(F)F [Bis(1H,1H-perfluoropropyl)amine]; conditions: in DMSO
Method: as §1

[14] = compound: O=S(=O)(F)C(F)(F)C(F)(F)C(F)(F)C(F)(F)C(F)(F)C(F)(F)C(F)(F)C(F)(F)F [Perfluorooctanesulfonyl fluoride]; conditions: in DMSO
Method: as §1

[15] = compound: OCC(F)(F)C(F)(F)C(F)(F)CO [Hexafluoroamylene glycol]; conditions: in DMSO
Method: as §1

[16] = compound: NC(=O)C(F)(F)C(F)(F)C(F)(F)C(F)(F)C(N)=O [Octafluoroadipamide]; conditions: in DMSO
Method: as §1

[17] = compound: FC(F)(F)C(F)(F)C(F)(F)C(F)(F)C(F)(F)C(F)(F)CC1CO1 [3-(Perfluorohexyl)-1,2-epoxypropane]; conditions: in DMSO
Method: as §1

[18] = compound: NC(=O)C(F)(F)C(F)(F)C(F)(F)C(F)(F)F [Nonafluoropentanamide]; conditions: in DMSO
Method: as §1

[19] = compound: FC(F)(F)C(F)(F)C(F)(F)CC1CO1 [1H,1H-Heptafluorobutyl epoxide]; conditions: in DMSO
Method: as §1

## CASM3C:HLA-DR
[1]
  level (log10): -0.0345 ± 0.018
[2]; 6700 nM
  level (log10): -0.033 ± 0.011
[2]; 20000 nM
  level (log10): -0.0465 ± 0.022
[2]; 60000 nM
  level (log10): 0.0095 ± 0.044
[3]; 6700 nM
  level (log10): -0.0085 ± 0.0021
[3]; 20000 nM
  level (log10): -0.02 ± 0.0028
[4]; 6700 nM
  level (log10): -0.022 ± 0.014
[4]; 20000 nM
  level (log10): -0.053 ± 0.017
[4]; 60000 nM
  level (log10): -0.04 ± 0.064
[5]; 6700 nM
  level (log10): -0.016 ± 0.024
[5]; 20000 nM
  level (log10): -0.022 ± 0.0014
[5]; 60000 nM
  level (log10): -0.008 ± 0.0028
[6]; 6700 nM
  level (log10): -0.0125 ± 0.042
[6]; 20000 nM
  level (log10): -0.0075 ± 0.016
[6]; 60000 nM
  level (log10): -0.008 ± 0.0014
[7]; 6700 nM
  level (log10): 0.0145 ± 0.015
[7]; 20000 nM
  level (log10): 0.0155 ± 0.022
[8]; 1500 nM
  level (log10): 0.0555 ± 0.047
[8]; 4400 nM
  level (log10): 0.007 ± 0.024
[8]; 13000 nM
  level (log10): 0.0505 ± 0.036
[8]; 40000 nM
  level (log10): 0.0855 ± 0.0035
[9]; 6700 nM
  level (log10): -0.0255 ± 0.023
[9]; 20000 nM
  level (log10): 0.008 ± 0.023
[10]; 6700 nM
  level (log10): -0.008 ± 0.042
[10]; 20000 nM
  level (log10): -0.0015 ± 0.015
[10]; 60000 nM
  level (log10): 0.0155 ± 0.011
[11]; 6700 nM
  level (log10): 0.002 ± 0.03
[11]; 20000 nM
  level (log10): 0 ± 0.0071
[11]; 60000 nM
  level (log10): 0.005 ± 0.0042
[12]; 6700 nM
  level (log10): 0.0245 ± 0.005
[12]; 20000 nM
  level (log10): -0.0115 ± 0.0035
[12]; 60000 nM
  level (log10): -0.001 ± 0.0085
[13]; 6700 nM
  level (log10): -0.013 ± 0.0057
[13]; 20000 nM
  level (log10): -0.0105 ± 0.0021
[13]; 60000 nM
  level (log10): 0.015 ± 0.058
[14]; 6700 nM
  level (log10): 0.0065 ± 0.022
[14]; 20000 nM
  level (log10): -0.0035 ± 0.0092
[14]; 60000 nM
  level (log10): 0.008 ± 0.0057
[15]; 6700 nM
  level (log10): 0.014 ± 0.016
[15]; 20000 nM
  level (log10): 0.0095 ± 0.015
[15]; 60000 nM
  level (log10): -0.0015 ± 0.028
[16]; 6700 nM
  level (log10): -0.0105 ± 0.022
[16]; 20000 nM
  level (log10): -0.019 ± 0.0057
[16]; 60000 nM
  level (log10): 0.01 ± 0.018
[17]; 6700 nM
  level (log10): -0.016 ± 0.027
[17]; 20000 nM
  level (log10): -0.033 ± 0.0071
[17]; 60000 nM
  level (log10): 0.009 ± 0.057
[18]; 6700 nM
  level (log10): -0.0315 ± 0.005
[18]; 20000 nM
  level (log10): -0.0005 ± 0.036
[18]; 60000 nM
  level (log10): -0.0275 ± 0.021
[19]; 6700 nM
  level (log10): -0.014 ± 0.0099
[19]; 20000 nM
  level (log10): -0.017 ± 0.0028
[19]; 60000 nM
  level (log10): -0.0165 ± 0.016
